# Measurements: US11083717B2, “Compositions and methods for drug sensitization of parasites” (The Texas A&M University System, priority 2015, dated 2021)
# Where two headings read alike, the source gives them in different places.
# Key:
# [1] = system: human fibroblast; test: in vitro; conditions: human
# [2] = system: S. cerevisiae; test: in vitro; conditions: Saccharomyces cerevisiae
# [3] = in vitro
# [4] = HCLint in vitro intrinsic clearance, human (HLM); type: in vitro ADME
# [5] = Plasma pharmacokinetics in mouse; type: in vivo, female Balb/c mouse; conditions: for AUC(0-t): read-out: AUC0-24 (converted)
# Method: To investigate the relationship between anticryptosporidial activity and systemic exposure the plasma pharmacokinetics for NZ-369 were measured. […] The pharmacokinetics of NZ-369 following single intravenous (IV) and oral administration (PO) at 3 and 10 mg free base/kg respectively to the female Balb/c mouse.
# [6] = system: Cryptosporidium parvum (CP); test: Cell culture model of Cryptosporidium parvum infection in HCT-8 cells, real-time qRT-PCR; type: cell-based; conditions: Cryptosporidium parvum
# Outline: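 HCT-8 monolayers were infected with C. parvum Iowa oocysts (1.5×10^4/well) for 3 h, then compounds were added after medium exchange and cells were incubated 41 h more (44 h total, 37 °C). Parasite Cp18S rRNA was measured by one-step SYBR qRT-PCR of lysates, normalized to host Hs18S, and % inhibition at the stated µM was derived from a standard curve.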
# [7] = MCLint in vitro intrinsic clearance, mouse (MLM); type: in vitro ADME
# [8] = Plasma protein binding; type: in vitro ADME; conditions: mouse, mice, read-out: PPB (converted)
# [9] = female, Balb/c, mouse, plasma, 3 mg/kg, IV 3 mg free base/kg, single dose
# [10] = female, Balb/c, mouse, plasma, 10 mg/kg, PO 10 mg free base/kg, single dose
structure (smiles),measurement,setting,value
"CNC(=O)C(C)c1ccc(Oc2nc3ccc(Cl)cc3s2)cc1 (stereo not drawn) [NZ-369, 2-{4-[(6-chloro-1,3-benzothiazol-2-yl)oxy]phenyl}-N-methylpropanamide]","concentrations at which not toxic, human fibroblast cytotoxicity testing",[1],≥ 100 µM
same,"concentrations at which not toxic, S. cerevisiae cytotoxicity testing",[2],≥ 100 µM
same,IC50,[3]; Saccharomyces cerevisiae,> 100 µM
same,IC50,[3]; human,> 100 µM
same,"HCLint (mL/min/g liver), HLM",[4],HLM = 0.69 mL/min/g liver
same,Clb,"[5]; IV 3 mg free base/kg, single dose",6.6 mL/min/kg
same,half-life,[5]; [9],204 min
same,AUC(0-t),[5]; [9],7540 ng·h/mL
same,Vd,"[5]; female, Balb/c, mouse, plasma, 3 mg/kg, IV 3 mg free base/kg, single dose, read-out: Vdss",1.7 L/kg
same,Cmax,[5]; [10],2160 ng/mL
same,Tmax,[5]; [10],2 h
same,AUC(0-t),[5]; [10],19800 ng·h/mL
same,bioavailability,"[5]; female, Balb/c, mouse, plasma, 10 mg/kg, printed in the IV column, PO 10 vs IV 3 mg free base/kg",78.8%
same,systemic pharmacokinetics (in words),[5]; plasma,excellent systemic pharmacokinetics
same,MIC50,"[6]; 44 h, CP in HCT-8 cells, 44 h infection, 50% reduction of parasite growth vs control, NA: not active, read-out: MIC50",50 to 80 nM
same,MIC50,[6]; read-out: MIC50 (nM) (CP),80 nM
same,"MCLint (mL/min/g liver), MLM",[7],MLM = 3.3 mL/min/g liver
same,fraction unbound,[8],0.015
